For one assay, the system named is HBVEC. As to the kind of experiment: TUNEL assay, dose response of apoptosis in HBVEC. In kind it is cell-based, human.
The test system of a further assay is mouse cerebellum. Description: Mouse cerebellum apoptosis analysis (TUNEL of brain sections). Particulars: similar to that induced by T. brucei. It is filed as in vivo, Balb/c mice. On the procedure:
Murine African trypanosomiasis model. All animal-related procedures were carried out in strict accordance with the National Institutes of Health Guide for the Care and Use of Laboratory Animals and approved by the Morehouse School of Medicine's Animal Care and Use Committee. Male Balb/c mice (6-8 weeks of age) were maintained on a 12-hour-light/12-hour-dark cycle with access to food and water ad libitum. Mice were injected intra-peritoneally with parasitized blood (T. brucei L427) and groups of 10 were then sacrificed on days 0, 4, 6 and 8 post-infection (P.I.). Equal numbers of mice were sham-injected (with uninfected blood) as controls. All experiments were repeated twice at different times to ensure that the data were representative of each group, and took into account the potential individual-host variation in trypanosome-induced global gene expression. This murine trypanosomiasis model mimics the major clinical symptoms of HAT, with the infected mice developing fever, tremors, lethargy, weight loss, dyskinesia, convulsions, altered gait, and death by day 10 post injection (P.I.).
Mouse cerebellum and apoptosis analysis. […] The level of apoptosis visible in brain sections was determined semi-quantitatively as the mean numbers of TUNEL-positive (i.e. apoptotic) cells/cm^2 in 20 comparative fields of brain sections from infected and uninfected mice.

Experimental for HBVEC: RBVEC Cell line: Human Brain Macrovascular Endothelial Cells (HBVEC) were obtained from Biowhittaker (Walkersville, Md.). They were grown in media made as per the instructions in the Complete Medium Kit (Cell Systems Corporation, Kirkland, Wash.). Briefly, 500 ml of Complete Medium was added to 10 ml of Attachment Factor (Cell Systems Corporation, Kirkland, Wash.). The medium is a liquid medium containing 10% serum and CSC Growth factor. Cell stocks were maintained in T25 flasks at 37° C. in a 5% CO2 incubator, and were harvested and passed at about 60-80% confluence. Experiments were performed on cells plated and grown for 24 to 48 hours on collagen-coated coverslips in 35 mm tissue culture dishes.
Terminal deoxynucleotidyl transferase dUTP nick-end labeling (TUNEL) assay. […] Cells on cover slips were washed with PBS, and fixed for 30 minutes at RT with 4% paraformaldehyde, in PBS, pH 7.4. […] Total cell counts were determined by counterstaining fixed cultures with 20:g/ml of Hoechst 33258. […]
Dose Response. The effect of Trypanosome conditioned serum containing medium-induced apoptosis was determined in HBVEC. […] Total cells, and fluorescent cells were counted for each field examined (10 fields per plate minimum). The percentage of TUNEL-labeled cells was calculated as the number of FITC-stained cells divided by the total number.of cells. […]

“AEGPEDKGLTKGGKGKGEKETKVQDEV (listed as Trypanosoma brucei) [ProEP2-1]”: the “induction of apoptosis in HBVEC” value in the assay on HBVEC is “induce apoptosis”. The “dose dependence of TUNEL labeling of HBVEC” value with HBVEC (24 hours) was “dose dependent”. Moreover, the “induction of apoptosis in cerebella of mice” value with mouse cerebellum was “induce apoptosis”.

The record behind these values is patent US7901681B2, “Trypanosome derived apoptotic factors (TAF)” (priority 2003, dated 2011).
